Experimental data taken from BindingDB's records for doi:10.7270/Q2F18X5F (Nmmlsc, 2010).

Target: T1, Ammonium transporter MEP2 (Saccharomyces cerevisiae (strain ATCC 204508 / S288c), UniProt P41948)
T1 sequence (P41948 whole entry): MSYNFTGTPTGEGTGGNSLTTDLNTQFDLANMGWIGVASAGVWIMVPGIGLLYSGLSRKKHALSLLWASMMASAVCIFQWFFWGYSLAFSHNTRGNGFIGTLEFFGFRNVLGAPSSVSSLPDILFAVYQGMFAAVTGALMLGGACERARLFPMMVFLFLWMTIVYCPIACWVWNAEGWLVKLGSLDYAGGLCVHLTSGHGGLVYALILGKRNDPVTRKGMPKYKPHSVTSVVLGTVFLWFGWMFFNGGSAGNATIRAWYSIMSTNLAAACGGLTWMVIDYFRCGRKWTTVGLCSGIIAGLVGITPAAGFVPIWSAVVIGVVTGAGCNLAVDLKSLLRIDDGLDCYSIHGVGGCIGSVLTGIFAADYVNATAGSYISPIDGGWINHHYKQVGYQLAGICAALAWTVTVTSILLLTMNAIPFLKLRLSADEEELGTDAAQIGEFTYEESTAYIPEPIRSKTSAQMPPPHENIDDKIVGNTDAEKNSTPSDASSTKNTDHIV
Assay: modulators of MEP2-GFP levels in yeast, dose response, S. cerevisiae, flow cytometry GFP, MLPCN hits (AID 2742)

EC50: > 33 µM
SMILES: CCN1/C(=C/c2ccc3cc(C)ccc3[n+]2CC)Sc2ccc3sccc3c21 [MLS000724336]
